PubChem BioAssay (NCI)
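Compound exposure: 48 hours, 5 concentrations, 96-well plates. Abbreviation: GI50, concentration required for 50% inhibition of growth. TGI denotes the concentration required for complete inhibition of growth.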

Experiments:
Experiment in all cases: growth of human tumour cells (NCI), 48 h; in the data active = GI50 below about 0.43 µM; inactive = the rest
OVCAR-5 ovarian = tested on: OVCAR-5 ovarian
HCT-15 colon = tested on: HCT-15 colon
KM12 colon = tested on: KM12 colon
OVCAR-3 ovarian = tested on: OVCAR-3 ovarian
SF-295 CNS = tested on: SF-295 CNS
MDA-MB-231 breast = tested on: MDA-MB-231 breast
HCT-116 colon = tested on: HCT-116 colon
CAKI-1 renal = tested on: CAKI-1 renal
UO-31 renal = tested on: UO-31 renal
SNB-75 CNS = tested on: SNB-75 CNS
OVCAR-8 ovarian = tested on: OVCAR-8 ovarian
HCC-2998 colon = tested on: HCC-2998 colon
SW-620 colon = tested on: SW-620 colon
SF-539 CNS = tested on: SF-539 CNS
786-0 renal = tested on: 786-0 renal
PC-3 prostate = tested on: PC-3 prostate
SK-MEL-2 melanoma = tested on: SK-MEL-2 melanoma
SK-MEL-28 melanoma = tested on: SK-MEL-28 melanoma
ACHN renal = tested on: ACHN renal
OVCAR-4 ovarian = tested on: OVCAR-4 ovarian
MDA-MB-435 = tested on: MDA-MB-435
SN12C renal = tested on: SN12C renal
NCI-H226 lung = tested on: NCI-H226 lung
SNB-19 CNS = tested on: SNB-19 CNS
HS 578T breast = tested on: HS 578T breast
BT-549 breast = tested on: BT-549 breast
NCI-H23 lung = tested on: NCI-H23 lung
HOP-62 NSCLC = tested on: HOP-62 NSCLC
T-47D breast = tested on: T-47D breast
HL-60(TB) leukemia = tested on: HL-60(TB) leukemia
SK-OV-3 ovarian = tested on: SK-OV-3 ovarian
SR leukemia = tested on: SR leukemia
NCI-H460 lung = tested on: NCI-H460 lung
DU-145 prostate = tested on: DU-145 prostate
MOLT-4 leukemia = tested on: MOLT-4 leukemia
CCRF-CEM leukemia = tested on: CCRF-CEM leukemia
SK-MEL-5 melanoma = tested on: SK-MEL-5 melanoma
RPMI-8226 leukemia = tested on: RPMI-8226 leukemia
COLO 205 colon = tested on: COLO 205 colon
M14 melanoma = tested on: M14 melanoma
A549 NSCLC = tested on: A549 NSCLC
U251 CNS = tested on: U251 CNS
TK-10 renal = tested on: TK-10 renal
SF-268 CNS = tested on: SF-268 CNS
MCF7 breast = tested on: MCF7 breast
LOX IMVI melanoma = tested on: LOX IMVI melanoma
NCI-H522 lung = tested on: NCI-H522 lung
NCI/ADR-RES ovarian = tested on: NCI/ADR-RES ovarian
HOP-92 NSCLC = tested on: HOP-92 NSCLC
UACC-257 melanoma = tested on: UACC-257 melanoma
IGROV1 ovarian = tested on: IGROV1 ovarian
UACC-62 melanoma = tested on: UACC-62 melanoma
RXF 393 renal = tested on: RXF 393 renal

CS(=O)(=O)O[C@H]1C(=O)N(c2cc3c4ccccc4ccc3c3ccccc23)[C@@H]1c1ccccn1
597 nM: TGI (MDA-MB-435)
878 nM: TGI (RXF 393 renal)
14900 nM: TGI (OVCAR-3 ovarian)
31700 nM: TGI (786-0 renal)
2960 nM: TGI (SF-539 CNS)
9790 nM: TGI (BT-549 breast)
> 100000 nM: TGI (OVCAR-5 ovarian) | TGI (HCT-15 colon) | TGI (KM12 colon) | TGI (CAKI-1 renal) | TGI (UO-31 renal) | TGI (SNB-75 CNS) | TGI (OVCAR-8 ovarian) | TGI (HCC-2998 colon) | TGI (SW-620 colon) | TGI (PC-3 prostate) | TGI (SK-MEL-2 melanoma) | TGI (SK-MEL-28 melanoma) | TGI (ACHN renal) | TGI (OVCAR-4 ovarian) | TGI (SN12C renal) | TGI (NCI-H226 lung) | TGI (SNB-19 CNS) | TGI (HS 578T breast) | TGI (NCI-H23 lung) | TGI (HOP-62 NSCLC) | TGI (T-47D breast) | TGI (HL-60(TB) leukemia) | TGI (SK-OV-3 ovarian) | TGI (SR leukemia) | TGI (NCI-H460 lung) | TGI (DU-145 prostate) | TGI (MOLT-4 leukemia) | TGI (CCRF-CEM leukemia) | TGI (RPMI-8226 leukemia) | TGI (A549 NSCLC) | TGI (U251 CNS) | TGI (TK-10 renal) | TGI (SF-268 CNS) | TGI (MCF7 breast) | TGI (LOX IMVI melanoma) | TGI (NCI-H522 lung) | TGI (NCI/ADR-RES ovarian) | TGI (UACC-257 melanoma) | TGI (IGROV1 ovarian) | TGI (UACC-62 melanoma)
56300 nM: TGI (HOP-92 NSCLC)
11800 nM: TGI (SF-295 CNS)
3350 nM: TGI (SK-MEL-5 melanoma)
23000 nM: TGI (HCT-116 colon)
active: GI50 (HCT-15 colon) 419 nM | GI50 (OVCAR-3 ovarian) 411 nM | GI50 (SF-295 CNS) 291 nM | GI50 (HCT-116 colon) 372 nM | GI50 (CAKI-1 renal) 413 nM | GI50 (SNB-75 CNS) 248 nM | GI50 (SW-620 colon) 401 nM | GI50 (SF-539 CNS) 316 nM | GI50 (786-0 renal) 348 nM | GI50 (PC-3 prostate) 399 nM | GI50 (MDA-MB-435) 217 nM | GI50 (HL-60(TB) leukemia) 309 nM | GI50 (SR leukemia) 384 nM | GI50 (DU-145 prostate) 416 nM | GI50 (SK-MEL-5 melanoma) 300 nM | GI50 (COLO 205 colon) 398 nM | GI50 (M14 melanoma) 317 nM | GI50 (MCF7 breast) 321 nM | GI50 (HOP-92 NSCLC) 395 nM | GI50 (UACC-62 melanoma) 347 nM | GI50 (RXF 393 renal) 242 nM
inactive: GI50 (OVCAR-5 ovarian) 711 nM | GI50 (KM12 colon) 473 nM | GI50 (MDA-MB-231 breast) 1070 nM | GI50 (UO-31 renal) 760 nM | GI50 (OVCAR-8 ovarian) 712 nM | GI50 (HCC-2998 colon) 1250 nM | GI50 (SK-MEL-2 melanoma) 687 nM | GI50 (SK-MEL-28 melanoma) 783 nM | GI50 (ACHN renal) 877 nM | GI50 (OVCAR-4 ovarian) 1620 nM | GI50 (SN12C renal) 737 nM | GI50 (NCI-H226 lung) 5360 nM | GI50 (SNB-19 CNS) 749 nM | GI50 (HS 578T breast) 428 nM | GI50 (BT-549 breast) 501 nM | GI50 (NCI-H23 lung) 981 nM | GI50 (HOP-62 NSCLC) 612 nM | GI50 (T-47D breast) 440 nM | GI50 (SK-OV-3 ovarian) 627 nM | GI50 (NCI-H460 lung) 2390 nM | GI50 (MOLT-4 leukemia) 2220 nM | GI50 (CCRF-CEM leukemia) 515 nM | GI50 (RPMI-8226 leukemia) 467 nM | GI50 (A549 NSCLC) 665 nM | GI50 (U251 CNS) 685 nM | GI50 (TK-10 renal) 996 nM | GI50 (SF-268 CNS) 707 nM | GI50 (LOX IMVI melanoma) 588 nM | GI50 (NCI-H522 lung) 573 nM | GI50 (NCI/ADR-RES ovarian) 523 nM | GI50 (UACC-257 melanoma) 16900 nM | GI50 (IGROV1 ovarian) 2140 nM
5230 nM: TGI (M14 melanoma)
1950 nM: TGI (COLO 205 colon)
14000 nM: TGI (MDA-MB-231 breast)
